Source: BindingDB's records for doi:10.1111/j.1471-4159.1979.tb04553.x (1979)
pKi: −log10 of the molar value.

Target: Gamma-aminobutyric acid type B receptor subunit 1 (UniProt Q9Z0U4)
Sequence (Q9Z0U4 whole entry): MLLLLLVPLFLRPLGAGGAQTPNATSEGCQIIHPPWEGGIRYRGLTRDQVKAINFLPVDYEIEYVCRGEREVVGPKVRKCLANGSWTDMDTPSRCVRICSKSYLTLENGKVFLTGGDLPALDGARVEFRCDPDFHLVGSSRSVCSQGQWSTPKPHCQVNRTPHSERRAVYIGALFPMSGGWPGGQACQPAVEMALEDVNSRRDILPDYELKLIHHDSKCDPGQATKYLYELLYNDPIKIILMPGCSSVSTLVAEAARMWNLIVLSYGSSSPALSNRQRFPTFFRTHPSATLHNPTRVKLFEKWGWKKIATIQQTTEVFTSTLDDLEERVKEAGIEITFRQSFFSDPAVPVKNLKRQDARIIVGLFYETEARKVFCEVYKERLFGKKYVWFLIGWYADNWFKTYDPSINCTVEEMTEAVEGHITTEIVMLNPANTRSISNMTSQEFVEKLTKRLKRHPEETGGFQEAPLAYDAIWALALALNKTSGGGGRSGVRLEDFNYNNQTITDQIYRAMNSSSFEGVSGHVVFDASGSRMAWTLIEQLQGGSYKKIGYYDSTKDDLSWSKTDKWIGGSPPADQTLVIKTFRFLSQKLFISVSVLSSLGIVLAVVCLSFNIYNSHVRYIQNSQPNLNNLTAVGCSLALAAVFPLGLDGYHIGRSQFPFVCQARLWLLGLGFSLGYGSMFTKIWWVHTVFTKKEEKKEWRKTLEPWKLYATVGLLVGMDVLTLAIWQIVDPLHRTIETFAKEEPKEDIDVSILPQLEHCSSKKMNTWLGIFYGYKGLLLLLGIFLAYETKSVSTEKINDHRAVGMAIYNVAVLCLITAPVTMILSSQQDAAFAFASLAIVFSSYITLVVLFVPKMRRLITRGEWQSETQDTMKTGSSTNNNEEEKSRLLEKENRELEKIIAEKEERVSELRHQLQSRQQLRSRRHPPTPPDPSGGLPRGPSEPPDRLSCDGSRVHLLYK

| Structure (SMILES) | pKi |
| --- | --- |
| O=C(O)[C@@H]1CCCNC1 (racemic) [Nipecotic] | < 5.00 |
| N[C@@H]1C(=O)N2C(C(=O)O)=C(CSc3cnn[nH]3)CS[C@H]12 [CAS_37539-03-0] | 7.29 |
| NCc1cc(=O)[nH]o1 | 8.00 |
| CC(C)(O)C1C2OC(=O)C1C1(O)CC3OC34C(=O)OC2C14C (stereo not given) [NSC_5311359] | < 5.00 |
| c1c[nH]cn1 | 6.64 |
